Laboratory results: patent US20230059404A1, “Method for Producing Brown Adipocytes” (Kataoka Corporation, priority 2019, published 2023)

Assays:
[1] = tested on: β-adrenergic receptor signal pathway in brown adipocytes; experiment: Heat production capacity: Ucp1 mRNA after isoproterenol treatment of induced brown adipocytes; assay type: cell-based, human; settings: 6 hours treatment of cells induced with Example 3 (3 weeks SFBAM + 1 week SFBAMaM); compared with control treated with H2O; FIG. 9
Protocol: To quantify gene expression, total RNAs were extracted from fibroblasts treated with the respective compounds using FastGene (registered trademark) RNA basic kit (manufactured by Nippon Genetics Co., Ltd.). Fibroblasts were cultured in parallel using SFBAM as a control, and the total RNAs were extracted from the brown adipocytes induced with compounds and the control cells. After performing reverse-transcription with ReverTraAce (registered trademark) PCR RT Master Mix with gDNA Remover (manufactured by Toyobo Co., Ltd.), the real-time PCR analysis was performed by Power SYBR Green PCR Master Mix (Thermo Fisher Scientific). Three reactions were carried out per level under the following conditions: 40 cycles of reactions at 95° C. for 10 minutes, at 95° C. for 15 seconds, and at 60° C. for 60 seconds, in order. All results were normalized to the quantity of Tbp mRNA.
Regarding the cells, Ucp1 mRNA was quantified in the case after treatment with isoproterenol (β-adrenergic receptor agonist) for 6 hours and in the case after treatment with H2O, which is the solvent.

human fibroblasts = experiment: Direct conversion of human fibroblasts to brown adipocytes in serum-free medium SFBAM, efficiency judged comprehensively; assay type: cell-based; settings: conclusion from removal experiments
Protocol: The above human fibroblasts were seeded in 35 mm dishes coated with gelatin (Cat #: 190-15805, manufactured by FUJIFILM Wako Pure Chemical Co.) at 5×10^4, and cultured in DMEM medium (Cat #: 11965092; manufactured by Gibco) supplemented with 10% fetal bovine serum (FBS), 100 U/mL penicillin, 100 μg/mL streptomycin until 80% to 90% confluency at 37° C., 5% CO2.
Hereinafter, this is referred to as serum-free brown adipocyte-inducing medium “SFBAM”.
After the human fibroblasts reached 80% to 90% confluency, the dish medium was replaced with the above SFBAM and the human fibroblasts were cultured in SFBAM for 3 weeks. The medium was changed every 3 days.
The more the number of + marks, the higher the conversion efficiency. […] The mark − indicates no conversion to brown adipocytes.

SMILES	Ucp1 mRNA increase after treatment [1]	conversion efficiency attributed to the single compound (human fibroblasts)
CC(C)NCC(O)c1ccc(O)c(O)c1 (stereo not drawn) [isoproterenol, Isoproterenol]	up to 3.1 fold	–
CN(CCOc1ccc(CC2SC(=O)NC2=O)cc1)c1ccccn1 (stereo not drawn) [rosiglitazone, Rosiglitazone]	–	high conversion efficiency
C=C[C@@]1(C)CC(=O)[C@]2(O)[C@@]3(C)[C@@H](O)CCC(C)(C)[C@@H]3[C@H](O)[C@H](OC(C)=O)[C@@]2(C)O1 [forskolin, Forskolin]	–	followed by a high conversion efficiency
